Reference: patent publication EP0445023A1, “Vehicle for a therapeutically active agent for external use and antiseptic preparation comprising said vehicle” (INNOTHERA, priority 1990, dated 1991)

Assay: ex vivo transcutaneous passage
Assay type: in vitro ADME
Details: peau épilée ou rasée de rats, applied as the antiseptic preparation

Q: With O=C(Nc1ccc(Cl)cc1)Nc1ccc(Cl)c(Cl)c1 [principe actif, trichloro-3,4,4′ carbanilide] as the compound, how does the “passage transcutané du principe actif” value read?
A: n'ont pas permis de déceler un passage transcutané
